Laboratory results reported in US7351709B2, “Estrogen receptor ligands” (Wyeth, priority 2004, dated 2008).
Where two headings read alike, the source gives them in different places.

Assays:
ERα [1] = molecular target: T1, ERα (Homo sapiens, UniProt P03372); test: IL-6 assay: inhibition of IL-1β induced IL-6 expression in ERα infected HAECT-1 cells; assay type: cell-based; details: for IC50: Ad5-wt-ER infected HAECT-1 cells, IL-1β stimulated, IL-6 by ELISA; for ER/IL-6 % E2: efficacy relative to the maximal inhibition observed with E2
T1 construct: expressed in transfected cells; host or cells: HAECT-1 cells infected with Ad5-wt-ER adenovirus
T1 sequence (P03372 1-595): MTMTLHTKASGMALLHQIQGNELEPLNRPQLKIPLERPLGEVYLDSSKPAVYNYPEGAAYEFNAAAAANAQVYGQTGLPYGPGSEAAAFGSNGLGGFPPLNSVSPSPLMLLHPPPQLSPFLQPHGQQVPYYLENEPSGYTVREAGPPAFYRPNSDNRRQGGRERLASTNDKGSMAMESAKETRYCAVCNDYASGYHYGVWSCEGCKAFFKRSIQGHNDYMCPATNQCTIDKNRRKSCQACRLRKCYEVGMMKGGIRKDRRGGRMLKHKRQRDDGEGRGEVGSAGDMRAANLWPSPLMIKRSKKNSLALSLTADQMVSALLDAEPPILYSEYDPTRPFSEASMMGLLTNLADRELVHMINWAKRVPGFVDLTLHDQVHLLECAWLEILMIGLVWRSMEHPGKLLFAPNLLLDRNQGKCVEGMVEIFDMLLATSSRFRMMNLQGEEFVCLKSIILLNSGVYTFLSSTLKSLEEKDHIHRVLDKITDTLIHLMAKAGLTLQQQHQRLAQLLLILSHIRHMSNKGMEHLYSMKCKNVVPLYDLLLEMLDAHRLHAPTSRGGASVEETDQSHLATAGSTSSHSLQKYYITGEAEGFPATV
Procedure: (§1) ERα infected HAECT-1 cells or control cells were thawed, diluted 42× in warm EBM-BSA, plated into 96-well plates at 0.1 ml/well and incubated for 4 h at 34° C. Test compounds were added to the cells as 2× stocks in EBM-BSA containing 2 ng/ml IL-1β (R&D Systems) and plates were returned to the incubator (34° C.). After 15-20 h, 100 μl aliquots of media were removed from the cells and assayed for IL-6 content using a BioSource human IL-6 ELISA Kit. Cells were subsequently washed with 300 μl of Dulbecco's phosphate buffered saline and lysed in 50 μl of Cell Culture Lysis Reagent (Promega). Creatine kinase was determined from the rate of increase in A340 following addition of 100 μl of CK assay reagent (Sigma, cat. No 47-10) to the remainder of the cell lysate.
(§2) For IC50 and EC50 calculations, mean IL-6 or CK values versus log10 of the compound concentration were fitted to a four parameter logistic equation. The IC50/EC50 value, ‘Hill slope’, upper and lower limits of the curve were iteratively estimated.

ERα [2] = molecular target: T1, ERα; test: Creatine kinase (CK) assay in ERα infected HAECT-1 cells; assay type: cell-based; details: for ER/CK % E2: efficacy relative to the maximal stimulation observed with E2
Procedure: as §1, §2

[3] = Ad5-wt-ER infected HAECT-1 cells, creatine kinase in cell lysate

Structure (SMILES)	IC50 (ERα [1]) [nM]	ER/IL-6 % E2 (ERα [1]) [% E2]	EC50 (ERα [2]; [3]) [µM]	ER/CK % E2 (ERα [2]) [% E2]	EC50 (ERα [2]; cells of the EC50 column printed in uM, read-out: ER/CK EC50) [µM]
CC[C@@H]1C(=O)N(Cc2ccccc2)c2cc(F)ccc2N1C(=O)c1cccc(O)c1 [Example 5, (3R)-1-Benzyl-3-ethyl-7-fluoro-4-(3-hydroxybenzoyl)-3,4-dihydroquinoxalin-2(1H)-one]	542	65	0.255	17	
CC[C@H]1C(=O)N(C)c2cc(F)ccc2N1S(=O)(=O)c1ccc(O)cc1 [Example 29, (3S)-3-Ethyl-7-fluoro-4-[(4-hydroxyphenyl)sulfonyl]-1-methyl-3,4-dihydroquinoxalin-2(1H)-one]	1170	85	0.344	20	
CC[C@@H]1C(=O)N(C2CCCC2)c2ccc(F)cc2N1C(=O)c1ccc(O)cc1 [Example 17, (3R)-1-Cyclopentyl-3-ethyl-6-fluoro-4-(4-hydroxybenzoyl)-3,4-dihydroquinoxalin-2(1H)-one]	445	96			
CC[C@@H]1C(=O)N(CC)c2ccc(F)cc2N1C(=O)c1ccc(O)cc1O [Example 18, (3R)-4-(2,4-Dihydroxybenzoyl)-1,3-diethyl-6-fluoro-3,4-dihydroquinoxalin-2(1H)-one]	20	96	0.169	36	
CC[C@H]1C(=O)N(C)c2ccc(Br)cc2N1S(=O)(=O)c1ccc(O)cc1 [Example 34, (3S)-6-bromo-3-ethyl-4-[(4-hydroxyphenyl)sulfonyl]-1-methyl-3,4-dihydroquinoxalin-2(1H)-one]	258	128			
CC[C@@H]1C(=O)N(CC)c2ccc(F)cc2N1C(=O)c1ccc(O)cc1 [Example 8, (3R)-1,3-Diethyl-6-fluoro-4-(4-hydroxybenzoyl)-3,4-dihydroquinoxalin-2(1H)-one]	139	99			
CC[C@@H]1C(=O)N(Cc2ccccc2)c2cc(F)ccc2N1C(=O)c1ccc(O)cc1 [Example 2, (3R)-1-Benzyl-3-Ethyl-7-fluoro-4-(4-hydroxybenzoyl)-3,4-dihydroquinoxalin-2(1H)-one]	1230	80		24	> 10
CCCCCN1C(=O)[C@@H](CC)N(C(=O)c2ccc(O)cc2)c2cc(F)ccc21 [Example 13, (3R)-3-Ethyl-6-fluoro-4-(4-hydroxybenzoyl)-1-pentyl-3,4-dihydroquinoxalin-2(1H)-one]	89	102			
CCCCN1C(=O)[C@H](CC)N(S(=O)(=O)c2ccc(O)cc2)c2cc(F)ccc21 [Example 23, (3S)-1-Butyl-3-ethyl-6-fluoro-4-[(4-hydroxyphenyl)sulfonyl]-3,4-dihydroquinoxalin-2(1H)-one]	313	106			
CC[C@H]1C(=O)N(CC)c2cc(Br)ccc2N1S(=O)(=O)c1ccc(O)cc1 [Example 31, (3S)-7-Bromo-1,3-diethyl-4-[(4-hydroxyphenyl)sulfonyl]-3,4-dihydroquinoxalin-2(1H)-one]	1570	71			
CC[C@H]1C(=O)N(C)c2ccc(C)cc2N1S(=O)(=O)c1ccc(O)cc1 [Example 28, (3S)-3-Ethyl-4-[(4-hydroxyphenyl)sulfonyl]-1,6-dimethyl-3,4-dihydroquinoxalin-2(1H)-one]	296	92			
CC[C@H]1C(=O)N(Cc2ccccc2)c2ccc(F)cc2N1S(=O)(=O)c1ccc(O)cc1 [Example 24, (3S)-1-benzyl-3-ethyl-6-fluoro-4-[(4-hydroxyphenyl)sulfonyl]-3,4-dihydroquinoxalin-2(1H)-one]	534	40			
CC[C@H]1C(=O)N(CC)c2ccc(C)cc2N1S(=O)(=O)c1ccc(O)cc1 [Example 27, (3S)-1,3-diethyl-4-[(4-hydroxyphenyl)sulfonyl]-6-methyl-3,4-dihydroquinoxalin-2(1H)-one]	447	63			
CCCCN1C(=O)[C@@H](CC)N(C(=O)c2ccc(O)cc2)c2cc(F)ccc21 [Example 12, (3R)-1-Butyl-3-ethyl-6-fluoro-4-(4-hydroxybenzoyl)-3,4-dihydroquinoxalin-2(1H)-one]	52	95			
CC[C@H]1C(=O)N(C)c2ccc(F)cc2N1C(=O)c1ccc(O)cc1 [Example 7, (3S)-3-Ethyl-6-fluoro-4-(4-hydroxybenzoyl)-1-methyl-3,4-dihydroquinoxalin-2(1H)-one]	303	44			
CC[C@@H]1C(=O)N(C(C)C)c2ccc(F)cc2N1C(=O)c1ccc(O)cc1 [Example 11, (3R)-3-Ethyl-6-fluoro-4-(4-hydroxybenzoyl)-1-isopropyl-3,4-dihydroquinoxalin-2(1H)-one]	105	91			
CCN1C(=O)[C@H](C)N(S(=O)(=O)c2ccc(O)cc2)c2cc(F)ccc21 [Example 21, (3S)-1-Ethyl-6-fluoro-4-[(4-hydroxyphenyl)sulfonyl]-3-methyl-3,4-dihydroquinoxalin-2(1H)-one]	181	56			
CC[C@@H]1C(=O)N(C)c2ccc(F)cc2N1C(=O)c1ccc(O)cc1 [Example 15, (3R)-3-Ethyl-6-fluoro-4-(4-hydroxybenzoyl)-1-methyl-3,4-dihydroquinoxalin-2(1H)-one]	102	84			
CC[C@@H]1C(=O)N(CC(F)(F)F)c2ccc(F)cc2N1C(=O)c1ccc(O)cc1 [Example 16, (3R)-3-Ethyl-6-fluoro-4-(4-hydroxybenzoyl)-1-(2,2,2-trifluoroethyl)-3,4-dihydroquinoxalin-2(1H)-one]	204	83			
CC[C@@H]1C(=O)N(CC(C)C)c2ccc(F)cc2N1C(=O)c1ccc(O)cc1 [Example 14, (3R)-3-Ethyl-6-fluoro-4-(4-hydroxybenzoyl)-1-isobutyl-3,4-dihydroquinoxalin-2(1H)-one]	262	87			
CCCN1C(=O)[C@@H](CC)N(C(=O)c2ccc(O)cc2)c2cc(F)ccc21 [Example 9, (3R)-3-Ethyl-6-fluoro-4-(4-hydroxybenzoyl)-1-propyl-3,4-dihydroquinoxalin-2(1H)-one]	222	96			
CC[C@H]1C(=O)N(C)c2cc(Br)ccc2N1S(=O)(=O)c1ccc(O)cc1 [Example 32, (3S)-7-bromo-3-ethyl-4-[(4-hydroxyphenyl)sulfonyl]-1-methyl-3,4-dihydroquinoxalin-2(1H)-one]	429	90			
C=CCN1C(=O)[C@H](CC)N(S(=O)(=O)c2ccc(O)cc2)c2cc(F)ccc21 [Example 22, (3S)-1-Allyl-3-ethyl-6-fluoro-4-[(4-hydroxyphenyl)sulfonyl]-3,4-dihydroquinoxalin-2(1H)-one]	5600	55			
CC[C@H]1C(=O)N(CC)c2ccc(Br)cc2N1S(=O)(=O)c1ccc(O)cc1 [Example 33, (3S)-6-bromo-1,3-diethyl-4-[(4-hydroxyphenyl)sulfonyl]-3,4-dihydroquinoxalin-2(1H)-one]	413	92			
CCCN1C(=O)[C@H](CC)N(S(=O)(=O)c2ccc(O)cc2)c2cc(F)ccc21 [Example 20, (3S)-3-Ethyl-6-fluoro-4-[(4-hydroxyphenyl)sulfonyl]-1-propyl-3,4-dihydroquinoxalin-2(1H)-one]	157	79			
C=CCN1C(=O)[C@@H](CC)N(C(=O)c2ccc(O)cc2)c2cc(F)ccc21 [Example 10, (3R)-1-Allyl-3-ethyl-6-fluoro-4-(4-hydroxybenzoyl)-3,4-dihydroquinoxalin-2(1H)-one]	57	95			
CC[C@H]1C(=O)N(CC)c2ccc(F)cc2N1C(=O)c1ccc(O)cc1 [Example 6, (3S)-1,3-Diethyl-6-fluoro-4-(4-hydroxybenzoyl)-3,4-dihydroquinoxalin-2(1H)-one]	285	44			
